Common to all, as to assay: cell-based
One test has as its target hα9rα10 nAChR (UniProt Q9JLB5+Q9UGM1). Details: species or system human α9 and rat α10.
For a further test, the target named is rα9α10 nAChR (Rattus norvegicus, UniProt P43144+Q9JLB5).
In another test the target is hα9α10[L7H] nAChR (Homo sapiens, UniProt Q9GZZ6+Q9UGM1, L31H). It counts as cell-based.
The target in another test is hα9α10 nAChR (Homo sapiens, UniProt Q9GZZ6+Q9UGM1).

Positions of bridges follow the written chain, without caps; N, C: chain ends. Residues, ends and D or L forms follow the SMILES beside them.

What is called IC50 is the point on the concentration scale where inhibition reaches its midpoint. Read a high IC50 as weaker potency in that assay.

Sequence of hα9α10[L7H] nAChR (Q9UGM1 26-479 limits assumed, stated change not applied): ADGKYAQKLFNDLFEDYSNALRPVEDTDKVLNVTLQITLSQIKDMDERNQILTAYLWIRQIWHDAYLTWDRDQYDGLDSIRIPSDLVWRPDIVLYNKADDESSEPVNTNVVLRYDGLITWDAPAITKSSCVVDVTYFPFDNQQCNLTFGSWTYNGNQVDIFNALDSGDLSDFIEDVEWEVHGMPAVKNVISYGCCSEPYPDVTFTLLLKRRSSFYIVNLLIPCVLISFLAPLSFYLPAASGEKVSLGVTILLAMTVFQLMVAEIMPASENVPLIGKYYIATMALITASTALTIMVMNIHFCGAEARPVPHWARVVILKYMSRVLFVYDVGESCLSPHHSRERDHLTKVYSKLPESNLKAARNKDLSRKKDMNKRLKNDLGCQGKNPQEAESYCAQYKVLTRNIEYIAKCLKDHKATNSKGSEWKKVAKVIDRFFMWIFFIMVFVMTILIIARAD
Sequence of hα9α10[L7H] nAChR (Q9GZZ6 25-450 L31H limits assumed, stated change not applied): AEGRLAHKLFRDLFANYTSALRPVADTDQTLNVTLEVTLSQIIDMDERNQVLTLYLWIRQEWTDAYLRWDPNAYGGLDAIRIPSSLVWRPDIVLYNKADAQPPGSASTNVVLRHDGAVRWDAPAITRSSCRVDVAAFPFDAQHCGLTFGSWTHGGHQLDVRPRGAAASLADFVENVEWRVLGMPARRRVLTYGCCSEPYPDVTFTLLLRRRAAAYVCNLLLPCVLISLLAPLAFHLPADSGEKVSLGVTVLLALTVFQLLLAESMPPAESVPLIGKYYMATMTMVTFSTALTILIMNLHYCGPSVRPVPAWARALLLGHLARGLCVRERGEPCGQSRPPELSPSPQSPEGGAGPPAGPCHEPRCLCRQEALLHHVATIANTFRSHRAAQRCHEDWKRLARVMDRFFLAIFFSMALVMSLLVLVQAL
Sequence of hα9rα10 nAChR (Q9UGM1 26-479 limits assumed): as the sequence (Q9UGM1 26-479 limits assumed, stated change not applied) above
Sequence of hα9rα10 nAChR (Q9JLB5 25-447 limits assumed): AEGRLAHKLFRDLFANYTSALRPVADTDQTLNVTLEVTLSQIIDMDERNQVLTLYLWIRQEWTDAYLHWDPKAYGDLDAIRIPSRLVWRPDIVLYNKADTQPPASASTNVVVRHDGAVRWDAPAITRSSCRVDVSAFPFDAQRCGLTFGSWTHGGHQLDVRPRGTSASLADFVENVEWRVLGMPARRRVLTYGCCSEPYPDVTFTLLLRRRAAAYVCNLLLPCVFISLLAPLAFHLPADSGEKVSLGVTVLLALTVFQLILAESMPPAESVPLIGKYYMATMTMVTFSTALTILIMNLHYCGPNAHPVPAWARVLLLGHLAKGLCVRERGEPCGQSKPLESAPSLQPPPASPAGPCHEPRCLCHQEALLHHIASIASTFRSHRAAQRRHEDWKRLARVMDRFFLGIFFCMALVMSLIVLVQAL
Sequence of hα9α10 nAChR (Q9UGM1 26-479 limits assumed): as the sequence (Q9UGM1 26-479 limits assumed, stated change not applied) above
Sequence of hα9α10 nAChR (Q9GZZ6 25-450 limits assumed): as the sequence (Q9GZZ6 25-450 L31H limits assumed, stated change not applied) above, with H7L counted along it
Sequence of rα9α10 nAChR (P43144 26-479 limits assumed): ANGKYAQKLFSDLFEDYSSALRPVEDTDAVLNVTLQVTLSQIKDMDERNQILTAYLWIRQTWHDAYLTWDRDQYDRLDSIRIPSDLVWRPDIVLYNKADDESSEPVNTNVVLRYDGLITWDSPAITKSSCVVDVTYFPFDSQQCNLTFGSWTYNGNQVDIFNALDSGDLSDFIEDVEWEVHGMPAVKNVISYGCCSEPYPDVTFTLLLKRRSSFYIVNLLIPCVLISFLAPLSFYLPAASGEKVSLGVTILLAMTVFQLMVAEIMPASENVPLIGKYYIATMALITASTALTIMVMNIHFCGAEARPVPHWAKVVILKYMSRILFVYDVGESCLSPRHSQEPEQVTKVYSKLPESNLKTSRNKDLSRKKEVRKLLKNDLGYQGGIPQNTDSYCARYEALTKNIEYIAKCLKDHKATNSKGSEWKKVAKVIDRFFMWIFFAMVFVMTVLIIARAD
Sequence of rα9α10 nAChR (Q9JLB5 25-447 limits assumed): as the sequence (Q9JLB5 25-447 limits assumed) above

As to `CSCC[C@H](NC(=O)[C@@H](NC(=O)[C@@H]1CSSC[C@@H]2NC(=O)[C@H](CC(=O)O)NC(=O)[C@H](C)NC(=O)[C@H](CCCNC(=N)N)NC(=O)[C@H](C)NC(=O)[C@@H]3CSSC[C@H](NC(=O)CNC(=O)[C@H](Cc4c[nH]cn4)NC(=O)CNC(=O)[C@H](CCCNC(=N)N)NC(=O)[C@H](Cc4c[nH]c5ccccc45)NC(=O)[C@H]([C@@H](C)O)NC(=O)[C@H](Cc4c[nH]cn4)NC(=O)[C@H](Cc4ccc(O)cc4)NC(=O)[C@H](C(C)C)NC(=O)[C@H](CSSC[C@H](NC(=O)[C@H](CC(C)C)NC(=O)[C@H](CCCNC(=N)N)NC(=O)[C@@H](N)[C@@H](C)O)C(=O)N[C@@H](CO)C(=O)N[C@@H]([C@@H](C)O)C(=O)N[C@@H](CCSC)C(=O)N[C@@H](CO)C(=O)N3)NC(=O)[C@H]([C@@H](C)O)NC2=O)C(=O)N[C@@H](CO)C(=O)N1)C(C)C)C(=O)O` [GeXXA-CTD] (H-TRLCSTMSCARADCTCVYHTWRGHGCSCVM-OH; disulfide 4-16, 9-26, 14-28), the half-maximal inhibitory concentration (IC50) turned out to be 224 nM at hα9rα10 nAChR, 198 nM against rα9α10 nAChR, 183 nM against hα9α10[L7H] nAChR and 2020 nM on hα9α10 nAChR.
